Data: patent US20230277553A1, “THERAPEUTIC COMPOSITION OF CURE-PRO COMPOUNDS FOR TARGETED DEGRADATION OF BET DOMAIN PROTEINS, AND METHODS OF MAKING AND USAGE” (CORNELL UNIVERSITY, priority 2020, published 2023)
Entries after “also recorded” stand apart in the source; their conditions may differ.

How the values were obtained:
Format in all cases: cell-based
BRD4 [1] = molecular target: T1, BRD4 (Homo sapiens, UniProt O60885); test: CURE-PRO-mediated BRD4 degradation with MDM2 ligands, WES (ProteinSimple), HCT116 cells; design: endogenous in cells; conditions: HCT116, 24 h, WES; for BRD4 degradation, in combination with MDM2 ligand 8313: 1:1 with 8313, 1-10 μM each; for BRD4 degradation, in combination with MDM2 ligand 8314: 1:1 with 8314, 1-10 μM each
Experimental: (§1) All cell lines were purchased from ATCC or DSMZ and grown at 37° C. with 5% CO2. Human HeLa cells were cultured in complete growth medium (Dulbecco's modified Eagle's medium (DMEM) supplemented with 10% FBS); MCF7 cells were cultured in complete growth medium (Dulbecco's modified Eagle's medium (DMEM) supplemented with 10% FBS and 0.01 mg/ml human recombinant insulin (Sigma Aldrich); Namalwa and MOLM-13 cells were cultured in complete growth medium (RPMI 1640 medium supplemented with 10% FBS); MV-4-11 were cultured in complete growth medium (Iscove's Modified Dulbecco's medium, supplemented with 10% FBS); HCT116 cells were cultured in complete growth medium (McCoy's 5a Medium supplemented with 10% FBS). For cellular degradation of BRD4 studies, cells were seeded in a 12-well plate at 70-80% confluency, allowed to attach overnight, and incubated with the indicated compounds for the indicated time. When indicated, a 15-minute pretreatment with 10 μM pomalidomide, 10 μM VHL298, 10 μM Nutlin3a, 1 μM MG-132 or 1 μM Carfilzomib was performed before the addition of CURE-PROs. For washout studies, after CURE-PRO treatment, media was aspirated and incubated with complete medium for the indicated time before lysis.
WES Simple analysis was performed on WES system (ProteinSimple-Biotechne) according to the manufacturer's instructions. Total protein concentrations of cell lysates were determined by the Pierce BCA kit (Thermo Fisher). 3 μL of 0.3 μg/μL of the protein lysate was loaded onto a 12- to 230-kDa WES assay plate (ProteinSimple) where 300 nL sample was withdrawn through a capillary, subjected to electrophoretic separation of proteins by size, and followed by the simultaneous, HRP-based detection of proteins using the Anti-Rabbit Detection Module (Proteinsimple: #DM-001). The electropherograms were checked then the automatic peak detection was manually corrected if it was required.
(§2) HCT116 cells (3×10^6) were treated for 24 hours with the compounds solubilized in DMSO. Compounds were added at 1 μM-10 μM each. Standardized protein samples were electrophoresed and imaged as described in the WES ProteinSimple section above. FIGS. 59, 60, and 61 depict the concentration-dependence of CURE-PRO-mediated BRD4 degradation using MDM2 ligands.
as §2, with “62” for “59, 60,”, “63” for “61”
HCT116 cells (3×10^6) were treated for 24 hours with the compounds solubilized in DMSO. CURE-PRO monomers were added at 10 μM each and the proteasomal inhibitors at 1 μM. Standardized protein samples were electrophoresed and imaged as described in the WES ProteinSimple section above. FIG. 68 depicts the dependence of the proteasome for CURE-PRO-mediated BRD4 degradation.

BRD4 [2] = molecular target: T1, BRD4; test: Summary of BRD4 degradation by CURE-PRO pairs, estimated from Western Blot or WES (Proteinsimple); design: endogenous in cells; conditions: for Degradation of BRD4 in combination with CRBN ligand [drawing 371] / Degradation of BRD4 in combination with CRBN ligand [drawing 372] / Degradation of BRD4 in combination with CRBN ligand [drawing 370]: Table 1; for Degradation of BRD4 in combination with CRBN ligand [drawing 371]: second drawing (8047); for Degradation of BRD4 in combination with CRBN ligand [drawing 372]: third drawing (8066); for Degradation of BRD4 in combination with CRBN ligand [drawing 370]: aromatic 1,2-diol- or hindered cis-1,2-diol-containing CRBN ligand, first drawing (8046)
Source text: A black check mark indicates efficacy of 30% to 70% or higher protein degradation.

BRD4 [3] = molecular target: T1, BRD4; test: CURE-PRO-mediated BRD4 degradation, Western blot, HeLa cells; design: endogenous in cells; host or cells: HeLa; conditions: 24 h; for BRD4 degradation, co-treatment with CRBN ligand 8046: 1:1 with 8046, 10 μM each; for BRD4 degradation, co-treatment with CRBN ligand 8066: 1:1 with 8066, 10 μM each (BRD-E10: 10 and 100 μM); for BRD4 degradation, BRD ligand alone: BRD monomer alone
Experimental: as §1
Anti-BRD4 (13440, 1:1,000 dilution for Western Blot and 1:25 dilution for ProteinSimple); Anti-BRD2 (5848 1:1,000 dilution for Western Blot and 1:25 dilution for ProteinSimple); β-Actin (3700, 1:2,000 dilution for Western Blot), β-Actin (4970, 1:50 dilution for ProteinSimple) anti-mouse IgG-HRP, and anti-rabbit IgG-HRP antibodies were purchased Cell Signaling Technology. Anti-GAPDH (600-401-A33, 1:100 dilution for ProteinSimple) was purchased from Rockland Immunochemicals, Inc. Anti-BRD3 (sc-81202, 1:200 dilution for Western Blot) was purchased from Santa Cruz Biotechnology.
HeLa, MCF7, or HCT116 cells (2.5-3×10^6) were treated for 24 hours with the indicated compounds solubilized in DMSO. The cells were washed in ice-cold PBS and were then lysed in RIPA lysis buffer (150 mM NaCl, 5 mM EDTA, 1% NP-40, 0.5% sodium deoxycholate, 0.1% SDS, 50 mM Tris, pH 8.0.) with Roche protease inhibitor complete cocktail and phosphatase inhibitors (10 mM sodium fluoride, 10 mM sodium pyrophosphate, 1 mM sodium orthovanadate and 20 mM β-glycerophosphate). The total protein concentrations were determined by Bradford Protein Assay and 10-20 μg of protein was loaded onto 4-15% Tris-Glycine gradient gels (Biorad). After standard gel electrophoresis, the separated proteins were transferred to PVDF membrane by wet transfer. The immunoblots were then blocked for 1 hour in 5% skim milk in TBST or 5% BSA in TBST, according to manufacturer's instructions, before an overnight incubation at 4° C. with indicated antibodies and membranes. Membranes were then incubated with the appropriate horseradish peroxidase-conjugated secondary antibodies (1:5,000 dilution) for 1 h at room temperature and the bands were visualized using the Clarity Max Western ECL Substrate (Biorad) and the ChemiDoc Imaging System (Biorad). Signal was detected with ECL Western Blotting Substrate (Pierce) and X-ray film processed with a Konica SRX-101 X-ray film processor or captured by Bio-Rad's Chemidoc Imaging system.
HeLa cells (2.5×106) were treated for 24 hours with the sample compounds solubilized in DMSO. Compounds were added at 1-10 μM each. Standardized protein samples were electrophoresed and imaged as described in the immunoblotting description above. FIGS. 6-18 depicts the CURE-PRO-mediated BRD4 degradation for BRD monomers (JQ1 derivatives comprising of catechol linkers), and CRBN ligands, 8048 and 8049 (pomalidomide derivatives comprising boronic acid linkers) combined in a 1:1 ratio.
HeLa cells (2.5×106) were treated for 24 hours with the compounds solubilized in DMSO. The compounds were added at 10 μM each. Standardized protein samples were electrophoresed and imaged as described in the immunoblotting section above. […]

Row | Structure (SMILES) | BRD4 degradation, in combination with MDM2 ligand 8313 (BRD4 [1]) | BRD4 degradation, in combination with MDM2 ligand 8314 (BRD4 [1]) | Degradation of BRD4 in combination with CRBN ligand [drawing 371] (BRD4 [2]) | Degradation of BRD4 in combination with CRBN ligand [drawing 372] (BRD4 [2]) | Degradation of BRD4 in combination with CRBN ligand [drawing 370] (BRD4 [2]) | BRD4 degradation, co-treatment with CRBN ligand 8046 (BRD4 [3]; Western blot) | BRD4 degradation, co-treatment with CRBN ligand 8066 (BRD4 [3]; Western blot) | BRD4 degradation, BRD ligand alone (BRD4 [3]; Western blot) | Concentration from which BRD4 degradation is observed, co-dosed with 8047 (BRD4 [3]; 1:1 with 8047, tested 1 nM-1 μM each) | Degradation of BRD4 in combination with VHL ligand [drawing 397] (BRD4 [2]; Table 3, aromatic 1,2-diol-containing VHL ligand, second drawing (8305)) | BRD4 degradation, co-treatment with CRBN ligand 8047 (BRD4 [3]; 1:1 with 8047, 10 μM each, Western blot) | Concentration at which BRD4 degradation is observed, co-dosed with 8046 (BRD4 [3]; 1:1 with 8046) | Concentration at which BRD4 degradation is observed, co-dosed with 8046 (BRD4 [3]; 1:1 with 8046, tested 1 nM-1 μM each) | Degradation of BRD4 in combination with CRBN ligand [drawing 407] (BRD4 [2]; Table 4, aryl-boronic acid-containing CRBN ligand, first drawing (by text: 8048)) | Degradation of BRD4 in combination with MDM2 ligand [drawing 424] (BRD4 [2]; Table 5, aryl-boronic acid-containing MDM2 ligand, second drawing (8312)) | BRD4 degradation, co-treatment with CRBN ligand 8048 (BRD4 [3]; 1:1 with 8048, 1-10 μM each, Western blot) | BRD4 degradation, co-treatment with CRBN ligand 8049 (BRD4 [3]; 1:1 with 8049, 1-10 μM each, Western blot)
1 | CCNC(=O)C[C@@H]1N=C(c2ccc(Cl)cc2)c2cc(OCCCCCCNC(=O)c3ccc(B(O)O)cc3)ccc2-n2c(C)nnc21 [BRD-E79, (4-((6-(((4S)-6-(4-chlorophenyl)-4-(2-(ethylamino)-2-oxoethyl)-1-methyl-4H-benzo[f][1,2,4]triazolo[4,3-a][1,4]diazepin-8-yl)oxy)hexyl)carbamoyl)phenyl)boronic acid] | caused BRD4 protein degradation at 1 and 10 μM; also recorded: Degradation of BRD4 is observed | no protein loss was observed | ✓ (A black check mark indicates efficacy of 30% to 70% or higher protein degradation) | ✓ (A black check mark indicates efficacy of 30% to 70% or higher protein degradation) | ✓ (A black check mark indicates efficacy of 30% to 70% or higher protein degradation) | causes degradation of BRD4; also recorded: Degradation is noted | causes degradation of BRD4; also recorded: Degradation is noted | no change in expression |  |  |  |  |  |  |  |  | 
2 | CCNC(=O)C[C@@H]1N=C(c2ccc(Cl)cc2)c2cc(OCCNC(=O)c3cccc(B(O)O)c3)ccc2-n2c(C)nnc21 [BRD-E21, (3-((2-(((4S)-6-(4-chlorophenyl)-4-(2-(ethylamino)-2-oxoethyl)-1-methyl-4H-benzo[f][1,2,4]triazolo[4,3-a][1,4]diazepin-8-yl)oxy)ethyl)carbamoyl)phenyl)boronic acid] | had no effect on BRD4 protein levels | caused partial loss of the BRD4 protein; also recorded: Degradation is observed | ✓ (A black check mark indicates efficacy of 30% to 70% or higher protein degradation) |  |  |  |  | no change in expression | ≥ 10 nM |  |  |  |  |  |  |  | 
3 | COc1ccc2c(c1)C(c1ccc(Cl)cc1)=N[C@@H](CC(=O)NCCc1ccc(B(O)O)cc1)c1nnc(C)n1-2 [BRD-E14, (4-(2-(2-((4S)-6-(4-chlorophenyl)-8-methoxy-1-methyl-4H-benzo[f][1,2,4]triazolo[4,3-a][1,4]diazepin-4-yl)acetamido)ethyl)phenyl)boronic acid] |  | caused partial loss of the BRD4 protein; also recorded: Degradation is observed | ✓ (A black check mark indicates efficacy of 30% to 70% or higher protein degradation) |  |  |  |  |  |  | ✓ (A black check mark indicates efficacy of 30% to 70% or higher protein degradation) | causes degradation of BRD4; also recorded: Degradation is noted |  |  |  |  |  | 
4 | COc1ccc2c(c1)C(c1ccc(Cl)cc1)=N[C@@H](CC(=O)NCCCCCNC(=O)c1cccc(B(O)O)c1)c1nnc(C)n1-2 [BRD-E8] | had no effect on BRD4 protein levels | caused partial loss of the BRD4 protein; also recorded: Degradation is observed |  | ✓ (A black check mark indicates efficacy of 30% to 70% or higher protein degradation) | ✓ (A black check mark indicates efficacy of 30% to 70% or higher protein degradation) | causes degradation of BRD4; also recorded: Degradation is noted | causes degradation of BRD4; also recorded: Degradation is noted | no change in expression |  |  |  | 1 µM | 0.1 µM |  |  |  | 
5 | CCNC(=O)C[C@@H]1N=C(c2ccc(Cl)cc2)c2cc(OCCOCCOCCOCCOCCOCCNC(=O)c3cccc(O)c3O)ccc2-n2c(C)nnc21 [BRD-N71, N-(17-(((4S)-6-(4-chlorophenyl)-4-(2-(ethylamino)-2-oxoethyl)-1-methyl-4H-benzo[f][1,2,4]triazolo[4,3-a][1,4]diazepin-8-yl)oxy)-3,6,9,12,15-pentaoxaheptadecyl)-2,3-dihydroxybenzamide] |  |  |  |  |  |  |  | no degradation of BRD4 |  |  |  |  |  | ✓ (A black check mark indicates efficacy of 30% to 70% or higher protein degradation) | ✓ (A black check mark indicates efficacy of 30% to 70% or higher protein degradation) | causes degradation of BRD4; also recorded: Some selectivity for BRD-N71 and 8048 is noted | no evidence of BRD4 degradation
